We go through ten molecules from paper PMC6990405, “Synthesis and Structure–Activity relationship of 1-(5-isoquinolinesulfonyl)piperazine analogues as inhibitors of Mycobacterium tuberculosis IMPDH” (European Journal of Medicinal Chemistry, 2019).

The subject of experiment [1] is M. tuberculosis SRMV2.6 (IMPDH Tyr487Cys). Format: cell-based, Mycobacterium tuberculosis.
Experiment [2] relates to M. tuberculosis guaB2 cKD mutant. Format: cell-based. The settings on record: increase in potency against guaB2 cKD mutant upon guaB2 silencing.

The structures appear in SMILES notation. ≈ marks a conversion by molar mass, not a printed value. Some results are limits rather than exact numbers.

Turning to `O=C(NCc1ccccc1)N1CCN(S(=O)(=O)c2cccc3cnccc23)CC1` [Compound 46, N-benzyl-4-(isoquinolin-5-ylsulfonyl)piperazine-1-carboxamide], the “MIC90 against SRMV2.6” value in experiment [1] was above 100 µM. The “Hyper-sensitivity to guaB2 cKD” value in experiment [2] is 8-fold.
Turning to `O=C(C1CCCCC1)N1CCN(S(=O)(=O)c2cccc3cnccc23)CC1` [Compound 1, Cyclohexyl[4-(isoquinoline-5-sulfonyl)piperazin-1-yl]methanone], the “MIC90 against SRMV2.6” value in experiment [1] amounted to 250 µM (≈ 96.9 µg/mL). Moreover, the “Hyper-sensitivity to guaB2 cKD” value in experiment [2] is recorded as “∼32-fold”.
In the case of `O=C(Nc1ccc2c(c1)OCO2)N1CCCN(S(=O)(=O)c2cccc3cnccc23)CC1` [Compound 44, 4-(isoquinoline-5-sulfonyl)-N-(2H-1,3-benzodioxol-5-yl)-1,4-diazepane-1-carboxamide], the “MIC90 against SRMV2.6” value in experiment [1] was above 100 µM. Moreover, the “Hyper-sensitivity to guaB2 cKD” value in experiment [2] is 8–16-fold.
`CC1CN(S(=O)(=O)c2cccc3cnccc23)CCN1C(=O)Nc1ccc2c(c1)OCO2` (stereo not shown) [Compound 45, N-(benzo[d][1,3]dioxol-5-yl)-4-(isoquinolin-5-ylsulfonyl)-2-methylpiperazine-1-carboxamide]: the “MIC90 against SRMV2.6” value in experiment [1] is above 100 µM. Further, in experiment [2], the “Hyper-sensitivity to guaB2 cKD” value was 8–16-fold.
Take `Cc1ccccc1CNC(=O)N1CCN(S(=O)(=O)c2cccc3cnccc23)CC1` [Compound 48, 4-(isoquinolin-5-ylsulfonyl)-N-(2-methylbenzyl)piperazine-1-carboxamide]: in experiment [1], the “MIC90 against SRMV2.6” value is 15.6 µM (≈ 6.62 µg/mL). Also, in experiment [2], the “Hyper-sensitivity to guaB2 cKD” value is given as 16–32-fold.
`COc1cccc(CNC(=O)N2CCN(S(=O)(=O)c3cccc4cnccc34)CC2)c1` [Compound 47, 4-(isoquinolin-5-ylsulfonyl)-N-(3-methoxybenzyl)piperazine-1-carboxamide]: in experiment [2], the “Hyper-sensitivity to guaB2 cKD” value is recorded as 8-fold.
Consider `O=C(CC1CCCCC1)N1CCN(S(=O)(=O)c2cccc3cnccc23)CC1` [Compound 22, 2-Cyclohexyl-1-(4-(isoquinolin-5-ylsulfonyl)piperazin-1-yl)ethan-1-one], for which the “MIC90 against SRMV2.6” value in experiment [1] was above 250 µM. In addition, the “Hyper-sensitivity to guaB2 cKD” value in experiment [2] is on record as 16-fold.
For the molecule `CC1CCCCC1C(=O)N1CCN(S(=O)(=O)c2cccc3cnccc23)CC1` (stereo not shown) [Compound 13, [4-(isoquinoline-5-sulfonyl)piperazin-1-yl](2-methylcyclohexyl)methanone], the “MIC90 against SRMV2.6” value in experiment [1] is above 250 µM. Moreover, the “Hyper-sensitivity to guaB2 cKD” value in experiment [2] was 16–32-fold.
With `O=C(C1CCCCCC1)N1CCN(S(=O)(=O)c2cccc3cnccc23)CC1` [Compound 14, Cycloheptyl[4-(isoquinoline-5-sulfonyl)piperazin-1-yl]methanone], the “MIC90 against SRMV2.6” value in experiment [1] is above 250 µM. Further, in experiment [2], the “Hyper-sensitivity to guaB2 cKD” value was 16-fold.
For `O=C(c1cccc([N+](=O)[O-])c1)N1CCN(S(=O)(=O)c2cccc3cnccc23)CC1` [Compound 18, [4-(isoquinoline-5-sulfonyl)piperazin-1-yl](3-nitrophenyl)methanone], the “MIC90 against SRMV2.6” value in experiment [1] is 50 µM (≈ 21.3 µg/mL). Besides, the “Hyper-sensitivity to guaB2 cKD” value in experiment [2] is listed as 8-fold.
